# Reference: article PMC10178848, “Modulating fast skeletal muscle contraction protects skeletal muscle in animal models of Duchenne muscular dystrophy” (The Journal of Clinical Investigation, 2023)
# Like-named read-outs stand apart in the source and are kept apart here.
# Key:
# [1] = target: T1, MKNK2 (Homo sapiens, UniProt Q9HBH9); assay: KINOMEscan scanEDGE; type: binding; details: 20 uM
# T1 construct: purchased Eurofins DiscoverX (KINOMEscan; SAFETYscan E/IC50 ELECT)
# [2] = target: T2, HTR1A (Homo sapiens, UniProt P08908); assay: SAFETYscan cAMP; type: cell-based; set-up: dose or concentration left out as unconfirmed
# T2 construct: purchased Eurofins DiscoverX (KINOMEscan; SAFETYscan E/IC50 ELECT)
# Description: (§1) The specificity of EDG-5506 for fast skeletal myosin over other, unrelated proteins was confirmed using two off-target binding and activity screens. […] A second off-target panel (SAFETYscan E/IC50 ELECT, Eurofins DiscoverX) tested in vitro enzyme activity against 78 proteins, including GPCR, ion channel, kinases, nuclear hormone receptors, and transporters. In all assays, the IC50 of EDG-5506 was more than 10 μM (Supplemental Data File 1).
# [3] = target: T3, CNR2 (Homo sapiens, UniProt P34972); assay: SAFETYscan cAMP; type: cell-based; set-up: dose or concentration left out as unconfirmed
# T3 construct: purchased Eurofins DiscoverX (KINOMEscan; SAFETYscan E/IC50 ELECT)
# Description: as §1
# [4] = target: T4, DRD1 (Homo sapiens, UniProt P21728); assay: SAFETYscan cAMP; type: cell-based; set-up: dose or concentration left out as unconfirmed
# T4 construct: purchased Eurofins DiscoverX (KINOMEscan; SAFETYscan E/IC50 ELECT)
# Description: as §1
# [5] = target: T5, OPRM1 (Homo sapiens, UniProt P35372); assay: SAFETYscan cAMP; type: cell-based; set-up: dose or concentration left out as unconfirmed
# T5 construct: purchased Eurofins DiscoverX (KINOMEscan; SAFETYscan E/IC50 ELECT)
# Description: as §1
# [6] = target: T6, HTR1B (Homo sapiens, UniProt P28222); assay: SAFETYscan cAMP; type: cell-based; set-up: dose or concentration left out as unconfirmed
# T6 construct: purchased Eurofins DiscoverX (KINOMEscan; SAFETYscan E/IC50 ELECT)
# Description: as §1
# [7] = target: T7, ADRB2 (Homo sapiens, UniProt P07550); assay: SAFETYscan cAMP; type: cell-based; set-up: dose or concentration left out as unconfirmed
# T7 construct: purchased Eurofins DiscoverX (KINOMEscan; SAFETYscan E/IC50 ELECT)
# Description: as §1
# [8] = target: T8, OPRD1 (Homo sapiens, UniProt P41143); assay: SAFETYscan cAMP; type: cell-based; set-up: dose or concentration left out as unconfirmed
# T8 construct: purchased Eurofins DiscoverX (KINOMEscan; SAFETYscan E/IC50 ELECT)
# Description: as §1
# [9] = target: T9, CNR1 (Homo sapiens, UniProt P21554); assay: SAFETYscan cAMP; type: cell-based; set-up: dose or concentration left out as unconfirmed
# T9 construct: purchased Eurofins DiscoverX (KINOMEscan; SAFETYscan E/IC50 ELECT)
# Description: as §1
# [10] = target: T10, ADRB1 (Homo sapiens, UniProt P08588); assay: SAFETYscan cAMP; type: cell-based; set-up: dose or concentration left out as unconfirmed
# T10 construct: purchased Eurofins DiscoverX (KINOMEscan; SAFETYscan E/IC50 ELECT)
# Description: as §1
# [11] = target: T11, RIOK2 (Homo sapiens, UniProt Q9BVS4); assay: KINOMEscan scanEDGE; type: binding; details: 20 uM
# T11 construct: purchased Eurofins DiscoverX (KINOMEscan; SAFETYscan E/IC50 ELECT)
# [12] = target: T12, PKAC-alpha (Homo sapiens, UniProt P17612); assay: KINOMEscan scanEDGE; type: binding; details: 20 uM
# T12 construct: purchased Eurofins DiscoverX (KINOMEscan; SAFETYscan E/IC50 ELECT)
# [13] = system: EDL muscles from mdx mice; assay: Ex vivo eccentric (lengthening) contraction injury, mdx EDL; set-up: species or system mouse
# Description: Isometric force was measured ex vivo in mouse EDL and soleus muscle. EDL muscle eccentric injury was based on published protocols ([30]), with degree of lengthening and stimulation modified to yield a uniform drop in mdx isometric and peak force over 10 contractions. After isolation, muscle was mounted via 5-0 suture to a combination servomotor/force transducer (300C-LR, Aurora) between 2 electrodes connected to a stimulator (701C, Aurora) in Ringers solution at 27°C with continuously infused CO2/O2 gas mixture. Experiments were recorded with custom MATLAB software via a National Instruments PCIe-6321 board and 2090A BNC connector. Muscles were preincubated for 60 minutes with DMSO (final 0.1%)/compound before 10 eccentric contractions, 1 minute apart, with 100 milliseconds of isometric stimulation at 100 Hz and active lengthening of 0.1 L0 at a rate of 2 L0/s. After lengthening, muscles were held at 1.1 L0 with stimulation for 100 milliseconds (Supplemental Figure 2A).
# [14] = target: T13, PIM2 (Homo sapiens, UniProt Q9P1W9); assay: KINOMEscan scanEDGE; type: binding; details: 20 uM
# T13 construct: purchased Eurofins DiscoverX (KINOMEscan; SAFETYscan E/IC50 ELECT)
# [15] = target: T14, EPHA2 (Homo sapiens, UniProt P29317); assay: KINOMEscan scanEDGE; type: binding; details: 20 uM
# T14 construct: purchased Eurofins DiscoverX (KINOMEscan; SAFETYscan E/IC50 ELECT)
# Description: as §1
# [16] = target: T15, CSNK1G2 (Homo sapiens, UniProt P78368); assay: KINOMEscan scanEDGE; type: binding; details: 20 uM
# T15 construct: purchased Eurofins DiscoverX (KINOMEscan; SAFETYscan E/IC50 ELECT)
# Description: as §1
# [17] = target: T16, JNK2 (Homo sapiens, UniProt P45984); assay: KINOMEscan scanEDGE; type: binding; details: 20 uM
# T16 construct: purchased Eurofins DiscoverX (KINOMEscan; SAFETYscan E/IC50 ELECT)
# Description: as §1
# [18] = target: T17, DCAMKL1 (Homo sapiens, UniProt O15075); assay: KINOMEscan scanEDGE; type: binding; details: 20 uM
# T17 construct: purchased Eurofins DiscoverX (KINOMEscan; SAFETYscan E/IC50 ELECT)
# Description: as §1
# [19] = target: T18, KIT(V559D,T670I) (Homo sapiens, UniProt P10721, T670I/V559D); assay: KINOMEscan scanEDGE; type: binding; details: 20 uM
# T18 construct: purchased Eurofins DiscoverX (KINOMEscan; SAFETYscan E/IC50 ELECT)
# Description: as §1
# [20] = target: T19, PIK3C2B (Homo sapiens, UniProt O00750); assay: KINOMEscan scanEDGE; type: binding; details: 20 uM
# T19 construct: purchased Eurofins DiscoverX (KINOMEscan; SAFETYscan E/IC50 ELECT)
# Description: as §1
# [21] = target: T20, PIM3 (Homo sapiens, UniProt Q86V86); assay: KINOMEscan scanEDGE; type: binding; details: 20 uM
# T20 construct: purchased Eurofins DiscoverX (KINOMEscan; SAFETYscan E/IC50 ELECT)
# Description: as §1
# [22] = target: T21, PCTK1 (Homo sapiens, UniProt Q00536); assay: KINOMEscan scanEDGE; type: binding; details: 20 uM
# T21 construct: purchased Eurofins DiscoverX (KINOMEscan; SAFETYscan E/IC50 ELECT)
# Description: as §1
# [23] = target: T22, FGFR2 (Homo sapiens, UniProt P21802); assay: KINOMEscan scanEDGE; type: binding; details: 20 uM
# T22 construct: purchased Eurofins DiscoverX (KINOMEscan; SAFETYscan E/IC50 ELECT)
# Description: as §1
# [24] = target: T23, MKNK1 (Homo sapiens, UniProt Q9BUB5); assay: KINOMEscan scanEDGE; type: binding; details: 20 uM
# T23 construct: purchased Eurofins DiscoverX (KINOMEscan; SAFETYscan E/IC50 ELECT)
# Description: as §1
# [25] = target: T24, MLK1 (Homo sapiens, UniProt P80192); assay: KINOMEscan scanEDGE; type: binding; details: 20 uM
# T24 construct: purchased Eurofins DiscoverX (KINOMEscan; SAFETYscan E/IC50 ELECT)
# Description: as §1
# [26] = target: T25, PIM1 (Homo sapiens, UniProt P11309); assay: KINOMEscan scanEDGE; type: binding; details: 20 uM
# T25 construct: purchased Eurofins DiscoverX (KINOMEscan; SAFETYscan E/IC50 ELECT)
# Description: as §1
# [27] = target: T26, BTK (Homo sapiens, UniProt Q06187); assay: KINOMEscan scanEDGE; type: binding; details: 20 uM
# T26 construct: purchased Eurofins DiscoverX (KINOMEscan; SAFETYscan E/IC50 ELECT)
# Description: as §1
# [28] = target: T27, AKT1 (Homo sapiens, UniProt P31749); assay: KINOMEscan scanEDGE; type: binding; details: 20 uM
# T27 construct: purchased Eurofins DiscoverX (KINOMEscan; SAFETYscan E/IC50 ELECT)
# Description: as §1
# [29] = target: T28, KIT (Homo sapiens, UniProt P10721); assay: KINOMEscan scanEDGE; type: binding; details: 20 uM
# T28 construct: purchased Eurofins DiscoverX (KINOMEscan; SAFETYscan E/IC50 ELECT)
# Description: as §1
# [30] = target: T29, TYK2(JH1domain-catalytic) (Homo sapiens, UniProt P29597); assay: KINOMEscan scanEDGE; type: binding; details: 20 uM
# T29 construct: TYK2(JH1domain-catalytic); purchased Eurofins DiscoverX (KINOMEscan; SAFETYscan E/IC50 ELECT)
# Description: as §1
# [31] = read-out: Max Response (%) (Agonist)
# [32] = read-out: Max Response (%) (Antagonist)
# T3 sequence (P34972 whole entry): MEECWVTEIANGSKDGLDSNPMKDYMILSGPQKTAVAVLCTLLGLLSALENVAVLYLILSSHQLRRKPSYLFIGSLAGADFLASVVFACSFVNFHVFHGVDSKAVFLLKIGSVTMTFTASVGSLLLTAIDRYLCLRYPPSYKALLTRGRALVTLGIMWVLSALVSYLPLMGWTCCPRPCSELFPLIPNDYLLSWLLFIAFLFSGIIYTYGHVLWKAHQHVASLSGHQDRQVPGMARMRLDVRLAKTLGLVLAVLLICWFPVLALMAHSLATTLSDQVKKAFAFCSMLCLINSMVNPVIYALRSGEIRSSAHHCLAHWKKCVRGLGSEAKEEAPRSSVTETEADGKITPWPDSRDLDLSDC
# T7 sequence (P07550 whole entry): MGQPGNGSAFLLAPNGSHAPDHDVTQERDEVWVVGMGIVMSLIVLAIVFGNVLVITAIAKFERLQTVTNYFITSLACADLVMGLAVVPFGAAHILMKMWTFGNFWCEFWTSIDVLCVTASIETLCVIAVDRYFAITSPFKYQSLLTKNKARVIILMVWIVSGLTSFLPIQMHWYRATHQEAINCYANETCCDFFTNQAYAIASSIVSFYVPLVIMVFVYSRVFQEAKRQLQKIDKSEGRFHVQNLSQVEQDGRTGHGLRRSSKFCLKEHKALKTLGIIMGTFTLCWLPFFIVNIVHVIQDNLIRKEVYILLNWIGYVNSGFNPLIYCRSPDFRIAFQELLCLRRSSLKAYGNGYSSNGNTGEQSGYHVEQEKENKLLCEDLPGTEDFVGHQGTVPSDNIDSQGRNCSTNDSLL
# T5 sequence (P35372 whole entry): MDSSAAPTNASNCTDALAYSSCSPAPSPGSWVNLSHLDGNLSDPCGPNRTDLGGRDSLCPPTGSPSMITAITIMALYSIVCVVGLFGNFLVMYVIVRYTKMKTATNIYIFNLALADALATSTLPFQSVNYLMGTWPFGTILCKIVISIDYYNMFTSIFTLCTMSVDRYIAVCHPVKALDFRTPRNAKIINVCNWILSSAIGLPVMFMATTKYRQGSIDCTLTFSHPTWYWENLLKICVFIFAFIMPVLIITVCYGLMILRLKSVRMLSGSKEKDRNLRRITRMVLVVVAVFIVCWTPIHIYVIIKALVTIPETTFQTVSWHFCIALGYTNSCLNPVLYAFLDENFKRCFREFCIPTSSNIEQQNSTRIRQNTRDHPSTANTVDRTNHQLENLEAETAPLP
# T4 sequence (P21728 whole entry): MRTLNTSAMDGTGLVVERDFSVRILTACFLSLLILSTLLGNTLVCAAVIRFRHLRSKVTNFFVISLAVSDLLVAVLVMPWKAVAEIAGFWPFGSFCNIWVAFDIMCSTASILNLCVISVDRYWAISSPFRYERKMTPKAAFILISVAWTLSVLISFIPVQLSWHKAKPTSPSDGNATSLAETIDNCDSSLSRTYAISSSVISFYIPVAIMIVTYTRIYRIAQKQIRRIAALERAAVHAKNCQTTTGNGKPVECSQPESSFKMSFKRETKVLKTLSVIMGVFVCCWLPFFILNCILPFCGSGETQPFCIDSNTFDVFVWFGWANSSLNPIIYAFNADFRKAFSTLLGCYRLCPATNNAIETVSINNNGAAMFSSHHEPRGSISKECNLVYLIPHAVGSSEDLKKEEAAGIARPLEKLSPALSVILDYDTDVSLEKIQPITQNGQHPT
# T6 sequence (P28222 whole entry): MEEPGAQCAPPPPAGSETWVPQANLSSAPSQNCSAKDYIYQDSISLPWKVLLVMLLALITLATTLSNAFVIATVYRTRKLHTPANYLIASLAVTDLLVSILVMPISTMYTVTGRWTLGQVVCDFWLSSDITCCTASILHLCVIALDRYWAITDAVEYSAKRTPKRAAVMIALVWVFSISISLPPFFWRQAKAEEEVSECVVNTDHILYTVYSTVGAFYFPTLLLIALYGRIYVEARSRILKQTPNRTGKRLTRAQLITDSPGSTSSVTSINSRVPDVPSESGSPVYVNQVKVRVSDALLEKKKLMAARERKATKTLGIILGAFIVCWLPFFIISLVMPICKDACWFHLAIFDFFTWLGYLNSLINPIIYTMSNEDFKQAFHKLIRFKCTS
# T2 sequence (P08908 whole entry): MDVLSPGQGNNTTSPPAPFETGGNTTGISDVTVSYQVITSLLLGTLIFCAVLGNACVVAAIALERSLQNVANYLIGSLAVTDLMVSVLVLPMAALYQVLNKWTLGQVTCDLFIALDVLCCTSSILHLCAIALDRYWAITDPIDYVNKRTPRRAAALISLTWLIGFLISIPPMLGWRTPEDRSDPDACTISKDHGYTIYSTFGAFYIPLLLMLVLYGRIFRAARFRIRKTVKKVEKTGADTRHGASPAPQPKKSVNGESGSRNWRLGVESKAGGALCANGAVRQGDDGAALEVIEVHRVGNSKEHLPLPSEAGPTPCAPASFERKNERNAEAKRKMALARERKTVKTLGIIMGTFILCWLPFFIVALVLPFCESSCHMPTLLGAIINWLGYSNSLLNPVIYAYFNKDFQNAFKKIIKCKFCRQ
# T8 sequence (P41143 whole entry): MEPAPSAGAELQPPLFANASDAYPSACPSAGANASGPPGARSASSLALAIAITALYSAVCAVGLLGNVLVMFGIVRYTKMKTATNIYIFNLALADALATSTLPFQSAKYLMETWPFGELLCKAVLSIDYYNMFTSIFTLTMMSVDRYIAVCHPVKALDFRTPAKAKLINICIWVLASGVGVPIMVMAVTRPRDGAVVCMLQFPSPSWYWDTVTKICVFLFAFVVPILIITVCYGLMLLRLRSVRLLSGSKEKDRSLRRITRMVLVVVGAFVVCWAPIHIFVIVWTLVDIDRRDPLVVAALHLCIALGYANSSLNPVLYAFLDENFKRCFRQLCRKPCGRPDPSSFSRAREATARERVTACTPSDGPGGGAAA
# T10 sequence (P08588 whole entry): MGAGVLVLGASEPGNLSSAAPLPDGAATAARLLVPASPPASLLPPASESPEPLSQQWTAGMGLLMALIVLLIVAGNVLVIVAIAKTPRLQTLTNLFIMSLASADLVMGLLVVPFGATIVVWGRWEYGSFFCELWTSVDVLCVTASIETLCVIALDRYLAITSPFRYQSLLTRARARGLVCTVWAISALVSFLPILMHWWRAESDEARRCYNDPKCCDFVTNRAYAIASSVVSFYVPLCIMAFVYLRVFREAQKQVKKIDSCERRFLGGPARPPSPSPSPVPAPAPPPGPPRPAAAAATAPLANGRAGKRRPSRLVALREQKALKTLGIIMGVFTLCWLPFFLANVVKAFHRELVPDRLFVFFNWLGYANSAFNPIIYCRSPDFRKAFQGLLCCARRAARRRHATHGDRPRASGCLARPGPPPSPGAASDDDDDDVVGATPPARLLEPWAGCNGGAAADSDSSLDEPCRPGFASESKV
# T9 sequence (P21554 whole entry): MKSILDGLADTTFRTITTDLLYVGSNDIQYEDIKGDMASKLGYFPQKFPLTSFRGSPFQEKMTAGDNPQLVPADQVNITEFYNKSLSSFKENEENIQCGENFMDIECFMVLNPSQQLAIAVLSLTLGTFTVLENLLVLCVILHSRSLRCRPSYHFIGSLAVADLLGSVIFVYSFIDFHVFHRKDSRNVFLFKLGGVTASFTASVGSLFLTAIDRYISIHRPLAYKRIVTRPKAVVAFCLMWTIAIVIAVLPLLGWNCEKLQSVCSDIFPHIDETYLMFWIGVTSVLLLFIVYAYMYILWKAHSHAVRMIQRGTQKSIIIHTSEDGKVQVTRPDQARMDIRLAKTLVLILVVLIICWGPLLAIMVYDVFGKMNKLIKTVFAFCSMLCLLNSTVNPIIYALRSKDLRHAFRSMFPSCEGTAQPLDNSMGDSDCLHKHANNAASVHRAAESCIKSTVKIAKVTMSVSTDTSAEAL
# T17 sequence (O15075 whole entry): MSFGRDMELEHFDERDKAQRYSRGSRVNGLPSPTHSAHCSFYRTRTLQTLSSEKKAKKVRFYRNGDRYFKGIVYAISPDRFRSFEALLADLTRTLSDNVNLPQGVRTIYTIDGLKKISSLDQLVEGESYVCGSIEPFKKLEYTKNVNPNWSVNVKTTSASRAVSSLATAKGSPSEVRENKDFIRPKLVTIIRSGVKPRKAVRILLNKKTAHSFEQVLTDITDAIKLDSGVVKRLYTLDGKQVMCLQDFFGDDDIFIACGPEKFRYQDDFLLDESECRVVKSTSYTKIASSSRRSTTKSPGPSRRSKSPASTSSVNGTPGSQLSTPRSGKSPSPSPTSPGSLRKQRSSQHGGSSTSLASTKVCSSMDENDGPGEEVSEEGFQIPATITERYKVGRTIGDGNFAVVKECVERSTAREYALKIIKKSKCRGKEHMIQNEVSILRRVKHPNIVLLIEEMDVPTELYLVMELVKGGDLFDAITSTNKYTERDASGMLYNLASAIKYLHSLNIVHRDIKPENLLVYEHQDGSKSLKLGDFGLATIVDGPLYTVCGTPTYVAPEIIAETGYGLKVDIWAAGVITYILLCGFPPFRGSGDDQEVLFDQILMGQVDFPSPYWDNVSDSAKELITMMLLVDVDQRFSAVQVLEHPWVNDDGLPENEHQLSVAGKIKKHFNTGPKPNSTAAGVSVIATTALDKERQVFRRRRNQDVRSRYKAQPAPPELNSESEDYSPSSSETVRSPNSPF
# T16 sequence (P45984 whole entry): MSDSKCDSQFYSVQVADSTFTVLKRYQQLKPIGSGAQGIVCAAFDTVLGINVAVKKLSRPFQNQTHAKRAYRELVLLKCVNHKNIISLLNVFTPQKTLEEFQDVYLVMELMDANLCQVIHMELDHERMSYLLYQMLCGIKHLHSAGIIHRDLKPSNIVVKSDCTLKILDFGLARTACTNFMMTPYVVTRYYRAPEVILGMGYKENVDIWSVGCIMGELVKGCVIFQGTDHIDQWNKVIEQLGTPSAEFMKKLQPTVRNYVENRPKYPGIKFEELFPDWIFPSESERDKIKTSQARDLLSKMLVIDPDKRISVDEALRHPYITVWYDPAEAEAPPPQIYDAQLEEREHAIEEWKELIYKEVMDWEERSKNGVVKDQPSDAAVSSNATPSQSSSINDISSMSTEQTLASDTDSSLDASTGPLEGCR
smiles,measurement,setting,value
O=c1ccc(-c2cnc(OCC(F)(F)F)nc2)nn1Cc1cncc(F)c1 [EDG-5506],"binding, % of control",[1],92 % of control
same,Emax,[2]; [31],0%
same,Emax,[2]; [32],1.51%
same,Emax,[3]; [31],27.5%
same,Emax,[3]; [32],0%
same,Emax,[4]; [31],3.04%
same,Emax,[4]; [32],14.3%
same,Emax,[5]; [31],17.4%
same,Emax,[5]; [32],0.2%
same,Emax,[6]; [31],0%
same,Emax,[6]; [32],4.17%
same,Emax,[7]; [31],0.97%
same,Emax,[7]; [32],20.8%
same,Emax,[8]; [31],7.61%
same,Emax,[8]; [32],9.41%
same,Emax,[9]; [31],14.8%
same,Emax,[9]; [32],3.38%
same,Emax,[10]; [31],2.02%
same,Emax,[10]; [32],9.68%
same,"binding, % of control",[11],80 % of control
same,"binding, % of control",[12],100 % of control
same,inhibition at 1 µM,"[13]; Mus musculus, at ≤1 μM (near maximal protection), read-out: inhibition of isometric force",~15%
same,strength drop with repeated lengthening contractions,[13]; mdx EDL ex vivo,dramatically lowered
same,concentration giving near maximal protection from strength drop,"[13]; mdx EDL, 10 lengthening contractions, 1-hour preincubation",≤ 1 µM
same,"binding, % of control",[14],100 % of control
same,"binding, % of control",[15],58 % of control
same,"binding, % of control",[16],96 % of control
same,"binding, % of control",[17],96 % of control
same,"binding, % of control",[18],76 % of control
same,"binding, % of control",[19],100 % of control
same,"binding, % of control",[20],100 % of control
same,"binding, % of control",[21],99 % of control
same,"binding, % of control",[22],100 % of control
same,"binding, % of control",[23],84 % of control
same,"binding, % of control",[24],85 % of control
same,"binding, % of control",[25],98 % of control
same,"binding, % of control",[26],97 % of control
same,"binding, % of control",[27],93 % of control
same,"binding, % of control",[28],100 % of control
same,"binding, % of control",[29],98 % of control
same,"binding, % of control",[30],87 % of control
